Patent US20230201151A1, “FORMULATIONS AND METHODS FOR TREATING ACUTE RESPIRATORY DISTRESS SYNDROME, ASTHMA, OR ALLERGIC RHINITIS” (UNIVERSITY OF FLORIDA RESEARCH FOUNDATION, INC., priority 2020, published 2023)

How the values were obtained:
Format in all cases: cell-based, human
ENaC [1] = assay: ENaC current in HBEC after increasing cytokine concentrations for 7 days (FIGS. 9-11); settings: for ENaC activity with increasing cytokine concentration: 7 days (FIGS. 9, 11)
Protocol: FIG. 9: ENaC Activity in Human Bronchial Epithelial Cells after Exposure to Increasing Concentrations of TNF-α for 7 Days. Human bronchial epithelial cells (HBEC) were treated with different concentrations of TNF-α (0.00005, 0.0005, 0.005, 0.05, 0.5, 5, 50 or 500 ng/mL media) for 7 days.
FIG. 10: ENaC Activity in Human Bronchial Epithelial Cells after Exposure to Increasing Concentrations of IFN-γ for 7 Days. HBEC were treated with IFN-γ (0.00005, 0.0005, 0.005, 0.05, 0.5, 5, 50 or 500 ng/mL media) for 7 days.
FIG. 11: ENaC Activity in Human Bronchial Epithelial Cells after Exposure to Increasing Concentrations of TGF-β1 for 7 Days. HBEC were treated with TGF-β1 (0.00005, 0.0005, 0.005, 0.05, 0.5, 5, 50 or 500 ng/mL media) for 7 days.
In some embodiments, HBECs were treated with different concentrations of TNF-α ranging from 0.00005 ng/mL to 500 ng/mL TNF-α (e.g., 0.00005, 0.0005, 0.005, 0.05, 0.5, 5, 50 or 500 ng/mL TNF-α in media) for 7 days.

ENaC [2] = assay: Benzamil-sensitive Isc (ENaC activity) in differentiated HBECs, Ussing chamber; settings: for cytokine concentration that decreased benzamil-sensitive Isc: 7 days incubation
Protocol: (§1) High individual variation in benzamil-sensitive current and TEER in HBECs. In an Ussing chamber-based experimental design, basal short-circuit current (Isc) and transepithelial electrical resistance (TEER) were recorded in differentiated HBECs from two lung donors that were grown on snapwells at an air-liquid interface for 28 to 35 days. Benzamil, a potent ENaC blocker was used to determine ENaC activity by calculating benzamil-sensitive Isc from changes in Isc that occur 15 minutes after adding 6 μM benzamil to the apical side of cells. […] Therefore, normalized data were used for all subsequent experiments for statistical analyses relating to FIGS. 13-18.
(§2) Basal treatment with cytokines [IL-13 (Abcam), IL-4 (PeproTech), TNF-α, IFN-γ and TGF-β1 (R&D Systems)] diluted in ALI medium started as early as day 14 post differentiation. Individual cytokines or cytokine cocktails were added to the culture medium at the desired concentrations and cells were incubated with the cytokines for a maximum of 16 days. ALI medium containing cytokines was changed every two days. Age-matched HBECs were assigned to the following treatment groups:
(§3) II Time-dependent studies: These studies were done using a concentration that ensured maximum inhibition of benzamil-sensitive Isc and TEER. HBECs were treated with respective cytokines for 2, 4, 6, 8, 10, 12, 14, or 16 days. IFN-γ, TNF-α or TGF-β1 at 1 ng/mL, IL-13 at 20 ng/mL and IL-4 at 2 ng/mL were used.
(§4) III Cytokine cocktails: were prepared using IFN-γ and TNF-α at 0.05, 0.5, 2.5, 5 and 10 ng/mL while TNF-α, IFN-γ and TGF-β1 at 1 ng/mL for each of the cytokines was added to the culture media for 7 days.
(§5) Ussing chamber experiments: Snapwells with differentiated HBECs that were incubated with cytokines or age-matched HBECs without cytokine exposure were mounted in Ussing chambers (Physiologic Instruments), and cells were either bathed in isotonic ringer solution containing 113.8 mM Na^+, 93.6 mM Cl^−, 25 mM HCO3^−, 5.2 mM K^+, 2.4 mM HPO4^−, 0.4 mM H2PO4^−, 1.2 mM Mg^2+, 1.2 mM Ca^2+, and 75 mM mannitol, or in AA-EC01. Glucose (5 mM) was added to the basal side, and chambers were bubbled with 95% O2 and 5% CO2 at 37° C. AA-EC01 contained 8 mM lysine, 8 mM tryptophan, 8 mM arginine, 8 mM glutamine, and 1.2 mM tyrosine, and AANC contained 8 mM leucine, 8 mM cysteine, 8 mM isoleucine, 8 mM aspartic acid and 8 mM glutamate (Ajinomoto), both diluted in an electrolyte solution containing 113.8 mM Na^t, 93.6 mM Cl^−, 25 mM HCO3^−, 5.2 mM K^+, 2.4 mM HPO4^−, 0.4 mM H2PO4^−, 1.2 mM Mg′, 1.2 mM Ca^2+ and 40 mM mannitol at pH 7.4 and 300 mOsm. Cell cultures were allowed to equilibrate in the Ussing chambers for 30 minutes while continuously voltage clamped to 0 mV. Basal short circuit current (Isc) and transepithelial electrical resistance (TEER) were recorded at 30-second intervals, and benzamil-sensitive Isc was calculated from the difference of basal Isc recorded after 30 minutes and Isc measured at 15 minutes after adding 6 μM of benzamil (ThermoFisher) to the apical side.
(§6) Statistical analysis: Results are presented as mean±standard error of mean (SEM). Analyses were performed with OriginPro 2018 software package. For each treatment group, values were tested for normal distribution using the Shapiro-Wilk normality test. […] The values were normalized to controls within the group, and data were pooled for comparison between groups. Kruskal-Wallis test was used for comparing the overall effect of ringer, AA-EC01 and AANC on benzamil-sensitive Isc and TEER, and Mann Whitney U test was used for pairwise comparison within the group and for comparison between basal values for each cytokine at zero ng/mL or day zero with each concentration and time period studied. P<0.05 was considered significant, and NS indicates not significant.

HBECs = assay: TEER (epithelial barrier function) in differentiated HBECs, Ussing chamber; settings: for TEER, normalized to control: day 16; for cytokine concentration that increased TEER / epithelial resistance: 7 days incubation
Protocol: as §1, §2, §3, §4, §5, §6

Substance	ENaC activity with increasing cytokine concentration (ENaC [1])	benzamil-sensitive Isc, normalized to control (ENaC [2]; 1 ng/mL cytokine, day 4) [%]	benzamil-sensitive Isc, normalized to control (ENaC [2]; 1 ng/mL cytokine, day 16) [%]	cytokine concentration that decreased benzamil-sensitive Isc (ENaC [2]) [ng/mL]	benzamil-sensitive Isc, normalized to control (plateau of reduction) (ENaC [2]; TNF-α around 10 ng/mL, 7 days) [%]	TEER, normalized to control (HBECs; 1 ng/mL cytokine) [%]	IFN-γ concentration at which ENaC current decreased relative to baseline (ENaC [1]; 7 days (FIG. 10)) [ng/mL media]	IFN-γ concentration with significant decrease in ENaC activity (ENaC [1]; 7 days (FIG. 10)) [ng]	benzamil-sensitive Isc, of baseline values (ENaC [2]; IFN-γ 5×10^−4 ng/mL, 7 days, normalized to control) [%]	cytokine concentration that increased TEER / epithelial resistance (HBECs) [ng/mL]	benzamil-sensitive Isc, normalized to control (ENaC [2]; TGF-β1 0.5 ng/mL, 7 days) [%]	benzamil-sensitive Isc, normalized to control (ENaC [2]; TGF-β1 50 ng/mL, 7 days) [%]	TEER over time (HBECs; 1 ng/mL cytokine, up to 16 days)	benzamil-sensitive Isc, normalized to control (ENaC [2]; 2 ng/mL IL-4, day 4) [%]	benzamil-sensitive Isc, normalized to control (maximum reduction) (ENaC [2]; 2 ng/mL IL-4, day 10) [%]	TEER, normalized to control (maximum inhibition) (HBECs; 2 ng/mL IL-4, day 10) [%]
TNF-α	concentration-dependent decrease	81.2±5.4	39.2±2.4	≥ 0.05	17.4±3.6	132.6±9.0	–	–	–	–	–	–	–	–	–	–
IFN-γ: type II IFN family cytokine (R&D Systems) added to HBEC culture medium	–	–	43.7±7.0	> 20	–	142.5±12.3	> 0.05	> 5	161.62±9.7	≥ 0.5	–	–	–	–	–	–
TGF-β1: Treg cytokine (R&D Systems) added to HBEC culture medium	concentration-dependent decrease	64.4±8.3	20.3±5.8	≥ 0.5	–	–	–	–	–	≥ 5	70.4±2.5	1.5±0.3	remained unaffected	–	–	–
IL-4: Th2 cytokine (PeproTech) added to HBEC culture medium	–	–	–	–	–	–	–	–	–	–	–	–	–	59.9±9.4	8.6±5	37.5±2
